Measured values: ChEMBL document CHEMBL1201862, “PubChem BioAssay data set” (2004)
Calls of active or inactive are those of the source.

Experiments:
[1] = target: DNA dC->dU-editing enzyme APOBEC-3A (Homo sapiens, UniProt P31941); assay: Dose Response confirmation of small molecule APOBEC3A DNA Deaminase Inhibitors via a fluorescence-based single-stranded DNA deaminase assay. [Related pubchem assays (depositor defined):AID493011, AID493024]; format: functional
[2] = target: DNA dC->dU-editing enzyme APOBEC-3G (Homo sapiens, UniProt Q9HC16); format: functional;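 further: Dose-response counterscreen measuring inhibition of APOBEC3G DNA deaminase activity, run while confirming APOBEC3A inhibitors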
[3] = viability of uninfected HEp-2 cells – cell-based, HTS, cytotoxicity control for RSV inhibitor project, dose response (AID 2410); format: functional; conditions: human respiratory syncytial virus
[4] = target: T1, Heat shock factor protein 1 (Mus musculus, UniProt P38532); assay: decrease of HSF1-responsive luciferase luminescence – cell-based, NIH3T3, dose retest, confirmation (AID 2382); format: functional;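 further: NIH3T3 fibroblasts with HSF1-driven luciferase reporter stressed by proteasome inhibitor MG132; luminescence from HSF1-driven luciferase expression after 8 hours of MG132 stress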
T1 sequence (P38532 whole entry): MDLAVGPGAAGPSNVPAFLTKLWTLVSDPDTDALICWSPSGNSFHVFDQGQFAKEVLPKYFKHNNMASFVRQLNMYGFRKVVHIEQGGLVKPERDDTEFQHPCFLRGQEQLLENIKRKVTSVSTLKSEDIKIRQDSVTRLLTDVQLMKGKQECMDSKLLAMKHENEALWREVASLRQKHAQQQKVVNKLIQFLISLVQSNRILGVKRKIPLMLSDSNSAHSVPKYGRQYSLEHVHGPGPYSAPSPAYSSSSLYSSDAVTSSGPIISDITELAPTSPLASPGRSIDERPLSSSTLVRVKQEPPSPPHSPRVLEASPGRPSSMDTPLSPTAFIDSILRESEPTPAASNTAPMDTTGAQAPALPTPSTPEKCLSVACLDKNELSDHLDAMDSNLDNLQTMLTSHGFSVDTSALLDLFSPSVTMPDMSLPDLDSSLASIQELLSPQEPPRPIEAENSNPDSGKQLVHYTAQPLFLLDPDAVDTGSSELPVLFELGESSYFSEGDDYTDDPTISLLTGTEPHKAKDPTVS

[5] = cells
[6] = A Cell Based Secondary Assay To Explore Cytotoxicity of Compounds that Sensitize Mycobacterium Tuberculosis to Beta-Lactam Antibiotics.; format: functional
[7] = target: T2, CAAX prenyl protease 2 (Saccharomyces cerevisiae S288c, UniProt Q03530); format: biochemical
T2 sequence (Q03530 whole entry): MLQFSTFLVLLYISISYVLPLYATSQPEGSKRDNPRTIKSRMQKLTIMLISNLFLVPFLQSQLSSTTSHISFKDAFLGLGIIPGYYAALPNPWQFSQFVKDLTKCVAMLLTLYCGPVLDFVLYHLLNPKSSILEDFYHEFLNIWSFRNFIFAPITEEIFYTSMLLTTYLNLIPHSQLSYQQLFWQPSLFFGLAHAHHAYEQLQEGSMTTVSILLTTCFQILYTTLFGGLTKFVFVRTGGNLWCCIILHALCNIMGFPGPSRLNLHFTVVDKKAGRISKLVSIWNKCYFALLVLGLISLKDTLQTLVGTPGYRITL

[8] = target: T3, Mucolipin-3 (Homo sapiens, UniProt Q8TDD5); assay: Dose response cell-based high-throughput screening assay for agonists of the transient receptor potential channel ML3 (TRPML3). [Related pubchem assays: 1526, 1424, 1448 ]; format: functional
T3 sequence (Q8TDD5 whole entry): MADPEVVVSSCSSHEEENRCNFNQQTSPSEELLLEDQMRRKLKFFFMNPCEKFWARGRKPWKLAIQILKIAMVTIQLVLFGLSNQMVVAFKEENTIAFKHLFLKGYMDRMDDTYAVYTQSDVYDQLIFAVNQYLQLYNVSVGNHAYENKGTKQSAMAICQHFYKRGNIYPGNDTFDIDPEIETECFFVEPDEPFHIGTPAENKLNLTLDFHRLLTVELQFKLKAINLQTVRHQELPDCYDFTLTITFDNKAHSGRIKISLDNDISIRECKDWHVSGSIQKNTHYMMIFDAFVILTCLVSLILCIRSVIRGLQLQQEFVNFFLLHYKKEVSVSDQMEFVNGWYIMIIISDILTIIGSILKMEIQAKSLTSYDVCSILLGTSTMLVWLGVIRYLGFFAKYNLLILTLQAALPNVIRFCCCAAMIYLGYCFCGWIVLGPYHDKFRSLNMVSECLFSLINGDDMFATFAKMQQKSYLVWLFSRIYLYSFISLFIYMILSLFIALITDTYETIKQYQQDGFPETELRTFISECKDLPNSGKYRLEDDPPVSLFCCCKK

[9] = target: Ion channel NompC (Danio rerio, UniProt Q7T1G6); assay: Fluorescence counterscreen assay for TRPML3 agonists: dose response cell-based high-throughput screening assay to identify agonists of the transient receptor potential channel N1 (TRPN1). [Related pubchem assays: 1526, 1424, 1448 ]; format: functional
[10] = target: G-protein coupled receptor 55 (Homo sapiens, UniProt Q9Y2T6); assay: inhibition of LPI-stimulated GPR55 beta-arrestin translocation – imaging, U2OS, beta-arrestin-GFP, LPI agonist, primary screen (AID 2013); format: functional;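 further: antagonist potency measured as reduced agonist-driven arrestin aggregation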
[11] = target: Cytochrome P450 2D6 (Homo sapiens, UniProt P10635);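 further: CYP2D6 member of a cytochrome P450 panel assay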
[12] = target: T4, Calpain-2 catalytic subunit (Sus scrofa, UniProt P43367); assay: m-calpain protease blockers, concentration series – biochemical, fluorogenic peptide substrate, dose response (AID 1420); format: functional
T4 sequence (P43367 whole entry): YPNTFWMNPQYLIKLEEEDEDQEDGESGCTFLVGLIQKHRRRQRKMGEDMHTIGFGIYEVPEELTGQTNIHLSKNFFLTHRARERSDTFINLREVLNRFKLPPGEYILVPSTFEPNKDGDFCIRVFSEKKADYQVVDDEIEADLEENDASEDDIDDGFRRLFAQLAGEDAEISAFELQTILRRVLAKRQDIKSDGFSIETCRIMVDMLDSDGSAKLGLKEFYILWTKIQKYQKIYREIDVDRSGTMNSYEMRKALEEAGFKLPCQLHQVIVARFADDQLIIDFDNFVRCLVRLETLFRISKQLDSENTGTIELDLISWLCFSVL

Chain of Ion channel NompC (Q7T1G6 whole entry): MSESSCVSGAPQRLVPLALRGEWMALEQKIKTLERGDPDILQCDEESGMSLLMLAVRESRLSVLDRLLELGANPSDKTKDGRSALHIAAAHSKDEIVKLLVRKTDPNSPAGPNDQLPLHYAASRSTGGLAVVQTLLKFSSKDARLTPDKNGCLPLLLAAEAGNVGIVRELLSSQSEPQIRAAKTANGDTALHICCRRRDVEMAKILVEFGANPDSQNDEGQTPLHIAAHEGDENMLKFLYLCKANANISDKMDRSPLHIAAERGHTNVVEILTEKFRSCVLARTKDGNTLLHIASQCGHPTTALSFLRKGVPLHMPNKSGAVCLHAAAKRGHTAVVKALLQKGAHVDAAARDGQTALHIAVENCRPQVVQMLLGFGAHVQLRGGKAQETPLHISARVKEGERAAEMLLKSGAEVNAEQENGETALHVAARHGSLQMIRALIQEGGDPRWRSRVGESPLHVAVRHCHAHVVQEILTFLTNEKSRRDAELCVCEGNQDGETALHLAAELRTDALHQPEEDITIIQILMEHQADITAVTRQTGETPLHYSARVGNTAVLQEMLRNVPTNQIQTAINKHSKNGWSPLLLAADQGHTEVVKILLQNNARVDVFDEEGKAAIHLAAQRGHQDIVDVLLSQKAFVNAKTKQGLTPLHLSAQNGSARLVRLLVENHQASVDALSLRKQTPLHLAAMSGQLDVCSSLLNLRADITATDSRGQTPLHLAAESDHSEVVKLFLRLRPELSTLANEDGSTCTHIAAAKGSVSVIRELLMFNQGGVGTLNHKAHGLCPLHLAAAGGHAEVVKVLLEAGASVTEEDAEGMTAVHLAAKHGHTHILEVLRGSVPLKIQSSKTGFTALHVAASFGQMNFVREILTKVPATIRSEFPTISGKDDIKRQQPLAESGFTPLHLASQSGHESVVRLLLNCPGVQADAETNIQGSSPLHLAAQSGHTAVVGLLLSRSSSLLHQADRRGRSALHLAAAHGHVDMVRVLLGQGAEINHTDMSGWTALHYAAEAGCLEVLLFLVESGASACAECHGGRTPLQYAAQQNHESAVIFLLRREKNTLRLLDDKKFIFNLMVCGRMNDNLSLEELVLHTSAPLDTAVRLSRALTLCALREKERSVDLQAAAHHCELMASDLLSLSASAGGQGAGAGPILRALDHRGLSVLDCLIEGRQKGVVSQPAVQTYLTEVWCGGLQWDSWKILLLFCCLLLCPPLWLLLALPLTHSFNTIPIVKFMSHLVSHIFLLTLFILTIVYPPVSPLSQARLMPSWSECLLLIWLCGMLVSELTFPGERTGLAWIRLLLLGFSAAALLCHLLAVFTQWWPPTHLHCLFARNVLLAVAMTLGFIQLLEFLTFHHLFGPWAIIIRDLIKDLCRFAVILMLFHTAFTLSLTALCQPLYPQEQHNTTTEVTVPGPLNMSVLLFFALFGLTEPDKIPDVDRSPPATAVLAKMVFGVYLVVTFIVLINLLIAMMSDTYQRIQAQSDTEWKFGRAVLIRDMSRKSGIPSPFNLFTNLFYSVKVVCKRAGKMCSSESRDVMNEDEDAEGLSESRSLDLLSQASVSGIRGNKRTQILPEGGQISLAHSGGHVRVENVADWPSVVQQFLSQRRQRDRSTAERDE
Chain of Cytochrome P450 2D6 (P10635 whole entry): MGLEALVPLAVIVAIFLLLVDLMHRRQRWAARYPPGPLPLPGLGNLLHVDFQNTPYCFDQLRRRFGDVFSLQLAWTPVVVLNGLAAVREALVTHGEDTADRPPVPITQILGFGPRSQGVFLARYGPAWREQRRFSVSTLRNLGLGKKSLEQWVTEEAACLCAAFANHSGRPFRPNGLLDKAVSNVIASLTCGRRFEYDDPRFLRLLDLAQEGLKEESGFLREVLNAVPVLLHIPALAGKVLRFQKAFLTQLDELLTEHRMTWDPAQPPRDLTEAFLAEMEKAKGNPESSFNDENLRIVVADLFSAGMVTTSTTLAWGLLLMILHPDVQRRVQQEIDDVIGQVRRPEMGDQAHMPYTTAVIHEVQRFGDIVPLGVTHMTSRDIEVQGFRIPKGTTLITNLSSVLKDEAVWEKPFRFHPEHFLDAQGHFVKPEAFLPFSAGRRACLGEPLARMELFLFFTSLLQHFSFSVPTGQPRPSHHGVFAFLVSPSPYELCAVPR
Chain of DNA dC->dU-editing enzyme APOBEC-3A (P31941 whole entry): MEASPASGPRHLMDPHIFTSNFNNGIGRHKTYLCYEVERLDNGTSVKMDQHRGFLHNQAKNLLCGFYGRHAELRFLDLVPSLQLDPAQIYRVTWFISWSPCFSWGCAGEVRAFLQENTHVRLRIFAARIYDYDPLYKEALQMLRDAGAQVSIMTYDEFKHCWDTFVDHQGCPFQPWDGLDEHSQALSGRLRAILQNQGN
Chain of DNA dC->dU-editing enzyme APOBEC-3G (Q9HC16 whole entry): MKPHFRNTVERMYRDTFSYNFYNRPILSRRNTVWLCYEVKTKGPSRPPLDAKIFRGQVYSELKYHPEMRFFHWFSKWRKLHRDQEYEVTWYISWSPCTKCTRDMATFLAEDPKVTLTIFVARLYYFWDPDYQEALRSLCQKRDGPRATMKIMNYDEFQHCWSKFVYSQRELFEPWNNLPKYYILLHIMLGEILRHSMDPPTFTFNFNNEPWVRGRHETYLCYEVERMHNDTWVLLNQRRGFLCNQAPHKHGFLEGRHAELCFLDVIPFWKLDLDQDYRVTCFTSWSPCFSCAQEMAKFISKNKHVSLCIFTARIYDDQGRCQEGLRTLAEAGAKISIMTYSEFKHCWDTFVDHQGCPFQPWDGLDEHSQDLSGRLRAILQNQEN
Chain of G-protein coupled receptor 55 (Q9Y2T6 whole entry): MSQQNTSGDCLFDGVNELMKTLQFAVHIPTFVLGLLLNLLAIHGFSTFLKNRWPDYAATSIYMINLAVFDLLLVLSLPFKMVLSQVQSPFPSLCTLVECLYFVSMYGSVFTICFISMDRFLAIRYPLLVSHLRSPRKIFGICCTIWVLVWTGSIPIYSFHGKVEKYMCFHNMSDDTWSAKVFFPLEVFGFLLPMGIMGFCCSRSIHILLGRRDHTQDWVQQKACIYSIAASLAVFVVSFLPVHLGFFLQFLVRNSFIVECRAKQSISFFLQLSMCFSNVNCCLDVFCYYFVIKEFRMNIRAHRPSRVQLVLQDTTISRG

SMILES: CCN1/C(=C\C(C)=O)Sc2ccc(OC)cc21
- IC50 [1]: 2.69 µM (active)
- IC50 [2]: 2.89 µM (active)

SMILES: Cc1cccc(C)c1-n1c(C)cc(/C=C2\NC(=O)NC2=O)c1C
- CC50 [3]: 24.6 µM (active)
- EC50 [4]: > 195 µM (not active)
- IC50 [5]: 8.7 µM (active)

SMILES: O=C(CCNc1ccc(F)cc1)c1cccc([N+](=O)[O-])c1
- CC50 [6]: > 40 µM (active)

SMILES: COc1ccc(-n2nc(C(=O)NCC(=O)N(C)Cc3ccccc3)c3ccccc3c2=O)cc1
- AC50 [7]: 70.8 µM (active)

SMILES: COc1ccc(OC)c(S(=O)(=O)N2CCCc3ccccc32)c1
- EC50 [8]: 3.58 µM (active)
- EC50 [9]: > 29.9 µM (not active)

SMILES: CCc1ccccc1N(CC)C(=O)CCc1nc(-c2ccc(C)cc2)no1
- IC50 [10]: 1.06 µM (active)

SMILES: O=C(CN1CCN(S(=O)(=O)c2ccc(F)cc2)CC1)Nc1ccc(Cl)c(C(F)(F)F)c1
- CC50 [3]: 4.99 µM (active)
- EC50 [8]: 3.5 µM (active)
- EC50 [9]: > 29.9 µM (not active)
- AC50 [11]: 39.8 µM (inconclusive)

SMILES: O=S(=O)(N1CCCCC1)N1CCN(c2cc(Cl)ccc2Cl)CC1
- EC50 [8]: 2.07 µM (active)
- IC50 [12]: 4.07 µM (not active)
- EC50 [9]: > 29.9 µM (not active)

SMILES: O=S(=O)(c1ccccc1)N1CCC(c2nc(O)c3nnn(Cc4ccc5c(c4)OCCO5)c3n2)CC1
- CC50 [3]: 28.4 µM (active)
- IC50 [5]: 18.4 µM (active)
